Laboratory results as given in patent US20240285808A1, “MOLECULAR PROBES FOR IN VIVO DETECTION OF ALDEHYDES” (The General Hospital Corporation, priority 2021, published 2024).

What was measured:
[1] = test system: liver of bile duct ligated (BDL) rats; assay: MR imaging of liver in bile duct ligated rat liver fibrosis model; type: in vivo; conditions: for ΔCNR of liver: 30 min post injection
Description: Rat Liver Fibrosis Model:
Liver fibrosis was induced in male Sprague Dawley rats (n=7) by ligation of the common bile duct (CD®, Charles River Labs, Wilmington, MA). Control animals (n=4) underwent a sham procedure. The BDL and sham rats were imaged 10 days following ligation with a dose of […] of Gd-9 based on body surface area.
T1-mapping was performed with a flow sensitive alternating inversion recovery (FAIR) sequence: repetition time/echo time=11000/33.8 ms; flip angle, 90°; inversion times: 100, 200, 400, 500, 600, 1000, 1500, 2000 ms; field of view, 60×60 mm^2; matrix size, 140×140; slice thickness, 2 mm; acquisition time, 3 minutes 34 seconds. T1 weighted imaging with 3D FLASH: repetition time/echo time=20/2.3 ms; flip angle, 30°; field of view, 60×60 mm^2; matrix size: 127×127; slice thickness, 0.5 mm; acquisition time, 3 minutes 10 seconds. Following the imaging session, animals were sacrificed (30 min p.i.) and liver tissue was subjected to histopathologic analysis.
Longitudinal relaxation rate (R1) maps were generated from the T1 mapping images using a custom written MATLAB (Mathworks, Natick, MA) program for voxel wise fitting of the inversion recovery signal intensities as a function of the inversion time. A region of interest (ROI) was manually traced encompassing the liver parenchyma while avoiding major blood vessels. ΔR1 was calculated by subtracting the R1Pre from R1Post, eq S3. ΔCNR were analyzed from 3D T1 weighted FLASH images, the same as that in mouse.

[2] = test system: lung of SAMP8/SAMR1 mice with TAC; assay: MR imaging of lung in transverse aortic constriction (TAC) model; type: in vivo, mouse; conditions: 20 min post injection
Source text: Combined Heart and Lung Fibrosis Model:
Left ventricular dysfunction with pulmonary hypertension was induced by left thoracotomy transverse aortic constriction surgery (TAC) in 6-month-old senescence-accelerated-prone/resistant mice (SAMP8/SAMR1), which is a well-established model of pressure overload-induced cardiac hypertrophy that can induce heart and lung fibrosis. The transverse aorta was encircled with 7-0 nylon suture and tied tightly around a pre-sterilized, blunt-end of a 27-gauge needle. After securing the knot, the needle was removed, and aortic flow resumed. Another two groups of SAMP8 and SAMR1 mice received sham surgery as control. 3-weeks post-surgery, mice were anesthetized with isoflurane (1.5%) and imaged at a 4.7 Tesla Bruker MRI scanner.
For combined heart and lung imaging, a series of baseline images (2D T1 weighted FLASH for heart and 3D-UTE for lung) were first acquired. 2D T1 weighted FLASH: repetition time/echo time=18.24/3.54 ms; flip angle, 50°; field of view, 36×36 mm^2; matrix size, 138×138 mm^2; slice thickness, 1 mm; acquisition time, 3 minutes 50 seconds. 3D-UTE: repetition time/echo time=4/0.01225 ms; flip angle, 16°; field of view, 32×32 mm^2; matrix size, 128×128 mm^2; slice thickness, 0.25 mm; acquisition time, 3 minutes 36 seconds. Then a bolus of Gd-9 complex was administered i.v. and imaging performed for a period of 40 min p.i. with the repetition acquisition of 2D T1 weighted FLASH and 3D-UTE sequences. Following the imaging session, animals were sacrificed and heart and lung tissue was subjected to histopathologic analysis.
For lung imaging analysis, RARE image, FLASH image pre-contrast and immediately post-contrast were used to define regions of interest (ROIs) in the lung that excluded vessels and airways. A total of 6 lung ROIs were defined on axial UTE images to obtain signal intensity (SI); ROIs in the dorsal muscle in each slice were also defined as reference; ROIs in the field of view without any tissue (air) were used to measure the variation in background signal. Then the lung-to muscle ratio (LMR) or contrast to noise ratio (CNR) was averaged from the 6 slices to calculate changes in LMR (ΔLMR) or CNR (ΔCNR) at each time point.

[3] = test system: human fibrotic/cirrhotic liver associated with NASH and normal liver tissue; assay: LA-ICP-MS gadolinium imaging of human liver sections incubated with Gd-9; type: binding
Description: Liver tissues were obtained from a total of 9 anesthetized patients who underwent surgical resection at Massachusetts General Hospital, and analyzed in accordance with a protocol approved by the Massachusetts General Hospital's Institutional Review Board.
Tissue Analysis for Human Tissues
The dissected tissues were immediately snap frozen in OCT using liquid nitrogen, sectioned into 10-μm-thick slices and stored at −80° C. Subsequently, the tissue sections were first allowed to warm to room temperature for 10 min and then fixed in 60% ethanol for 30 min, and washed with PBS. The following steps were the same as described above for the Sirius red staining and DNPH-reactivity assay.
LA-ICP-MS Gadolinium Imaging Analysis
Sample preparation. Harvested rat livers after MR imaging were immediately snapfrozen in OCT using liquid nitrogen, sectioned into 10-μm-thick slices, stored in −80° C. One slice was assessed by LA-ICP-MS directly. One adjacent slide was incubated with 0.1 mM Gd-9 at 37° C. for 2 h, followed with 0.2 mM NaBH3CN for 2 h and washed with PBS (3×10 min). Another adjacent slide was incubated with 0.1 mM Gd-9 and 10 mM hydrazine at 37° C. for 2 h, followed with 0.2 mM NaBH3CN for 2 hand washed with PBS (3×10 min). Similar procedures were carried out for human tissues. Slides were incubated with 0.1 mM Gd-9 at 37° C. for 2h, followed with 0.2 mM NaBH3CN for 2 h and washed with PBS (3×10 min).
Gadolinium mapping. Elemental images were collected from sections of liver tissue via laser ablation inductively coupled plasma mass spectrometry at the Biomedical National Elemental Imaging Resource (BNEIR). The instrumentation used was a New Wave Research 213 nm laser ablation system with a 10 cm^2 sample chamber, interfaced with an Agilent 7900 ICP-MS system. Samples were ablated in no-gas mode, with helium as a carrier gas at a flow rate of […]. The laser power was 65% and the frequency was 20 Hz. Ablation patterns consisted of continuous lines, with either a 12 μm or […] square beam and a scan speed of 120 μm sec^−1 or 200 μm sec^−1 respectively, as noted. The acquisitions time for gadolinium (mass 157) was 0.015 s. Elemental imaging data was quantified using metal-doped gelatin standards prepared at BNEIR and National Institute of Standards and Technology (NIST) certified references material 1515 (apple leaves). Data reduction was performed in the Iolite software application, using carbon (mass 13) as an internal standard to normalize the data.
The applicability of Gd-9 to assess fibrogenesis in human liver specimens was investigated. Resected human fibrotic/cirrhotic liver associated with NASH (n=5) and normal liver tissue (n=4) (Table C) were sectioned and stained for Lys^Ald.

For `NN1CCN(C(=O)CCC(C(=O)[O-])N2CCN(CC(=O)[O-])CCN(CC(=O)[O-])CCN(C(CCC(=O)N3CCN(N)CC3)C(=O)[O-])CC2)CC1.[Gd+3]` (stereo not drawn) [Gd-9, cis-1,4-Gd-(CHyd)2], the “fold higher liver to muscle ΔCNR in BDL rats compared to sham rats” value ([1]; 30 min) was 4 fold, the “fold higher ΔR1 in BDL rats compared to sham rats” value ([1]; 30 min p.i.) was 5 fold and the ΔCNR of liver ([1]; BDL rats (n = 7)) was 3.4±1.6. For the same compound, the “change of liver longitudinal relaxation rate ΔR1” value ([1]; BDL rats, 30 min p.i.) was 0.6±0.2, the ΔCNR of liver ([1]; Sham rats (n = 4)) was 0.6±0.2 and the ΔR1 ([1]; rat model, in vivo imaging) was 0.6 s⁻¹. The “change of liver longitudinal relaxation rate ΔR1” value ([1]; sham rats, 30 min p.i.) was 0.1±0.03, the ΔCNR of lung ([2]; SAMP1-TAC) was 1.2 ± 0.3 and the ΔCNR of lung ([2]; SAMP8-Sham) was 0.8 ± 0.5. For the same compound, the ΔCNR of lung ([2]; SAMP8-TAC) was 3.1 ± 0.9, the ΔCNR of lung ([2]; Sham) was 0.4 ± 0.2 and the “average Gd concentration in fibrotic human liver” value ([3]; across all samples) was 80.4±15.5 ppm. For the same compound, the “average Gd concentration in normal liver” value ([3]; across all samples) was 23.7±10.8 ppm, the “average Gd concentration in Lys^Ald positive areas” value ([3]; fibrotic human liver slices incubated with 0.1 mM probe) was 30-200 ppm Gd and the “average Gd concentration in regions with low Lys^Ald” value ([3]; human liver slices incubated with 0.1 mM probe) was < 30 ppm Gd.
